Data from patent publication US20240315993A1, “ANTIPARASITIC COMPOUNDS” (Intervet Inc., priority 2021, published 2024).

Key:
[1] = system: juvenile soft ticks (Ornithodoros moubata); experiment: Guinea pig - efficacy against argaside tick; assay type: in vivo
Protocol: (§1) Guinea pigs were locally co-infested (using an infestation device on a shaved skin area) with juvenile soft ticks (Ornithodoros moubata) and bed bugs (Cimex lectularius) before the treatment day (Day 0) to provide a baseline-negative control value. Guinea pigs were treated orally (by gavage) or subcutaneously at a dose of 5 mg/kg bodyweight of a test compound in a formulation of 10% DMF/Emulsifier+90% Aqua ad injectabilia.
(§2) Repeated local infestations with both parasites were performed at different time points after treatment. Within approximately 45 min after each infestation ten engorged ticks and ten engorged bed bugs were • collected and the percentage of dead and damaged parasites per species were • assessed approximately 24 hours following collection. The efficacy was • calculated as % of inhibition ‘killed+damaged’ parasites in a treated group in comparison to the baseline-negative control (using a modified Schneider Orelli's formula).
(§3) Results: Activity of the test compounds at different evaluation time-points (≥80% inhibition were found active): […]

[2] = system: bed bugs (Cimex lectularius); experiment: Guinea pig - efficacy against bed bug; assay type: in vivo
Protocol: as §1, §2, §3

[3] = system: Yellow Fever Mosquito (Aedes aegypti); conditions: Aedes aegypti larvae about 1 day old, 96-well plate, scored after 3 days; cited from earlier work
[4] = system: Cabbage Looper (Trichoplusia ni); conditions: 128-well diet tray, average of eight wells, cited from earlier work; for Test B: Bioassay on CL, percent mortality rating: Cabbage Looper second instar larvae, 50 μg/cm^2, five to seven days; for Test B: percent mortality of Cabbage Looper (CL) larvae, rating: 50 μg/cm^2 on artificial diet, second instar larvae, 5-7 days
[5] = system: Beet Armyworm (Spodoptera exigua); conditions: 128-well diet tray, average of eight wells, cited from earlier work; for Test A: Bioassay on BAW, percent mortality rating: Beet Armyworm second instar larvae, 50 μg/cm^2, five to seven days; for Test A: percent mortality of Beet Armyworm (BAW) larvae, rating: 50 μg/cm^2 on artificial diet, second instar larvae, 5-7 days
[6] = 5 mg/kg subcutaneous, after 7 days
[7] = 5 mg/kg subcutaneous, after 10 days
[8] = 5 mg/kg subcutaneous, after 14 days
[9] = 5 mg/kg subcutaneous, after 17 days
[10] = 5 mg/kg subcutaneous, after 21 days
[11] = 5 mg/kg subcutaneous, after 24 days
[12] = 5 mg/kg subcutaneous, after 28 days
[13] = 5 mg/kg subcutaneous, after 31 days
[14] = 5 mg/kg, for at least one week, both administration routes

O=C(Nc1ncc(F)cc1F)c1cc(NC(=O)C2C(c3cc(Cl)cc(C(F)(F)F)c3)C2(Cl)Cl)ccc1Cl (centres unmarked) [Compound 475]
activity against tick nymphs (≥80% inhibition, killed+damaged) ([1]; 5 mg/kg oral, Day 0): immediate activity
activity against tick nymphs (≥80% inhibition, killed+damaged) ([1]; 5 mg/kg oral, after 7 days): activity
activity against tick nymphs (≥80% inhibition, killed+damaged) ([1]; 5 mg/kg oral, after 10 days): activity
activity against tick nymphs (≥80% inhibition, killed+damaged) ([1]; 5 mg/kg oral, after 14 days): activity
activity against tick nymphs (≥80% inhibition, killed+damaged) ([1]; 5 mg/kg oral, after 17 days): activity
activity against tick nymphs (≥80% inhibition, killed+damaged) ([1]; 5 mg/kg subcutaneous, Day 0): immediate activity
activity against tick nymphs (≥80% inhibition, killed+damaged) [1, 6]: activity
activity against tick nymphs (≥80% inhibition, killed+damaged) [1, 7]: activity
activity against tick nymphs (≥80% inhibition, killed+damaged) [1, 8]: activity
activity against tick nymphs (≥80% inhibition, killed+damaged) [1, 9]: activity
activity against tick nymphs (≥80% inhibition, killed+damaged) [1, 10]: activity
activity against tick nymphs (≥80% inhibition, killed+damaged) [1, 11]: activity
activity against tick nymphs (≥80% inhibition, killed+damaged) [1, 12]: activity
activity against tick nymphs (≥80% inhibition, killed+damaged) [1, 13]: activity
activity against tick nymphs (≥80% inhibition, killed+damaged) ([1]; 5 mg/kg subcutaneous, after 35 days): activity
effective to control ticks [1, 14]: 100%
activity against bed bugs (≥80% inhibition, killed+damaged) ([2]; 5 mg/kg oral, Day 0): immediate activity
activity against bed bugs (≥80% inhibition, killed+damaged) ([2]; 5 mg/kg oral, after 7 days): activity
activity against bed bugs (≥80% inhibition, killed+damaged) ([2]; 5 mg/kg oral, after 10 days): activity
activity against bed bugs (≥80% inhibition, killed+damaged) ([2]; 5 mg/kg oral, after 14 days): activity
activity against bed bugs (≥80% inhibition, killed+damaged) ([2]; 5 mg/kg oral, after 17 days): activity
activity against bed bugs (≥80% inhibition, killed+damaged) ([2]; 5 mg/kg oral, after 21 days): activity
activity against bed bugs (≥80% inhibition, killed+damaged) ([2]; 5 mg/kg oral, after 24 days): activity
activity against bed bugs (≥80% inhibition, killed+damaged) ([2]; 5 mg/kg oral, after 28 days): activity
activity against bed bugs (≥80% inhibition, killed+damaged) ([2]; 5 mg/kg subcutaneous, Day 0): immediate activity
activity against bed bugs (≥80% inhibition, killed+damaged) [2, 6]: activity
activity against bed bugs (≥80% inhibition, killed+damaged) [2, 7]: activity
activity against bed bugs (≥80% inhibition, killed+damaged) [2, 8]: activity
activity against bed bugs (≥80% inhibition, killed+damaged) [2, 9]: activity
activity against bed bugs (≥80% inhibition, killed+damaged) [2, 10]: activity
activity against bed bugs (≥80% inhibition, killed+damaged) [2, 11]: activity
activity against bed bugs (≥80% inhibition, killed+damaged) [2, 12]: activity
activity against bed bugs (≥80% inhibition, killed+damaged) [2, 13]: activity
effective to control bed bugs [2, 14]: 100%

O=C(Nc1ccc(-n2ccnc2)cc1)c1cc(NC(=O)[C@H]2[C@H](c3cc(Cl)cc(Cl)c3)C2(Cl)Cl)ccc1Cl [c1]
Test C: Bioassay on Yellow Fever Mosquito, mortality rating [3]: A (80-100)
Test B: Bioassay on CL, percent mortality rating [4]: A (50-100)
Test A: Bioassay on BAW, percent mortality rating [5]: A (50-100)

O=C(Nc1ccc(-n2cncn2)cc1)c1cc(NC(=O)[C@H]2[C@H](c3cc(Cl)cc(Cl)c3)C2(Cl)Cl)ccc1Cl [c2]
Test C: Bioassay on Yellow Fever Mosquito, mortality rating [3]: A (80-100)
Test B: Bioassay on CL, percent mortality rating [4]: A (50-100)
Test A: Bioassay on BAW, percent mortality rating [5]: A (50-100)

Cc1cc(C(F)(C(F)(F)F)C(F)(F)F)cc(C)c1NC(=O)c1cc(NC(=O)[C@H]2[C@H](c3cc(Cl)cc(Cl)c3)C2(Cl)Cl)ccc1Cl [c3]
Test C: Bioassay on Yellow Fever Mosquito, mortality rating [3]: D (No activity noticed in this bioassay)
Test B: Bioassay on CL, percent mortality rating [4]: A (50-100)
Test A: Bioassay on BAW, percent mortality rating [5]: A (50-100)

O=C(Nc1ccc(NC(=O)C2CC2)cc1)c1cc(NC(=O)[C@H]2[C@H](c3cc(Cl)cc(Cl)c3)C2(Cl)Cl)ccc1Cl [c4]
Test C: Bioassay on Yellow Fever Mosquito, mortality rating [3]: A (80-100)
Test B: Bioassay on CL, percent mortality rating [4]: A (50-100)
Test A: Bioassay on BAW, percent mortality rating [5]: A (50-100)

O=C(CC1CC1)Nc1ccc(NC(=O)c2cc(NC(=O)[C@H]3[C@H](c4cc(Cl)cc(Cl)c4)C3(Cl)Cl)ccc2Cl)cc1 [c5]
Test C: Bioassay on Yellow Fever Mosquito, mortality rating [3]: A (80-100)
Test B: Bioassay on CL, percent mortality rating [4]: A (50-100)
Test A: Bioassay on BAW, percent mortality rating [5]: A (50-100)

COCC1(C(=O)Nc2ccc(NC(=O)c3cc(NC(=O)[C@H]4[C@H](c5cc(Cl)cc(Cl)c5)C4(Cl)Cl)ccc3Cl)cc2)CC1 [c6]
Test C: Bioassay on Yellow Fever Mosquito, mortality rating [3]: A (80-100)
Test B: Bioassay on CL, percent mortality rating [4]: A (50-100)
Test A: Bioassay on BAW, percent mortality rating [5]: A (50-100)

O=C(Nc1ccc(NC(=O)C2CC2(F)F)cc1)c1cc(NC(=O)[C@H]2[C@H](c3cc(Cl)cc(Cl)c3)C2(Cl)Cl)ccc1Cl (some centres unmarked) [c7]
Test C: Bioassay on Yellow Fever Mosquito, mortality rating [3]: A (80-100)
Test B: Bioassay on CL, percent mortality rating [4]: A (50-100)
Test A: Bioassay on BAW, percent mortality rating [5]: A (50-100)

CC(C)(C)CC(=O)Nc1ccc(NC(=O)c2cc(NC(=O)[C@H]3[C@H](c4cc(Cl)cc(Cl)c4)C3(Cl)Cl)ccc2Cl)cc1 [c8]
Test C: Bioassay on Yellow Fever Mosquito, mortality rating [3]: D (No activity noticed in this bioassay)
Test B: Bioassay on CL, percent mortality rating [4]: A (50-100)
Test A: Bioassay on BAW, percent mortality rating [5]: A (50-100)

O=C(Nc1ccc(-n2cnnc2)cc1)c1cc(NC(=O)[C@H]2[C@H](c3cc(Cl)cc(Cl)c3)C2(Cl)Cl)ccc1Cl [c9]
Test C: Bioassay on Yellow Fever Mosquito, mortality rating [3]: A (80-100)
Test B: Bioassay on CL, percent mortality rating [4]: A (50-100)
Test A: Bioassay on BAW, percent mortality rating [5]: A (50-100)

CC(=O)Nc1ccc(NC(=O)c2cc(NC(=O)[C@H]3[C@H](c4cc(Cl)cc(Cl)c4)C3(Cl)Cl)ccc2Cl)c(C)c1 [c10]
Test C: Bioassay on Yellow Fever Mosquito, mortality rating [3]: A (80-100)
Test B: Bioassay on CL, percent mortality rating [4]: A (50-100)
Test A: Bioassay on BAW, percent mortality rating [5]: A (50-100)

O=C(Nc1ccc2ncsc2c1)c1cc(NC(=O)C2C(c3cc(Cl)cc(Cl)c3)C2(Cl)Cl)ccc1Cl (centres unmarked) [c11]
Test C: Bioassay on Yellow Fever Mosquito, mortality rating [3]: A (80-100)
Test B: Bioassay on CL, percent mortality rating [4]: A (50-100)
Test A: Bioassay on BAW, percent mortality rating [5]: A (50-100)

Cc1cc(N)ccc1NC(=O)c1cc(NC(=O)C2C(c3ccc(F)c(Cl)c3)C2(Cl)Cl)ccc1Cl (centres unmarked) [c50]
Test C: Bioassay on Yellow Fever Mosquito, mortality rating [3]: A (80-100)
Test B: Bioassay on CL, percent mortality rating [4]: A (50-100)

Cc1cc(N)ccc1NC(=O)c1cc(NC(=O)C2C(c3cc(Cl)cc(Cl)c3)C2(Cl)Cl)ccc1Cl (centres unmarked) [c82]
Test C: Bioassay on Yellow Fever Mosquito, mortality rating [3]: A (80-100)
Test B: Bioassay on CL, percent mortality rating [4]: A (50-100)

Cc1cc(N)ccc1NC(=O)c1cc(NC(=O)C2C(c3cc(Cl)cc(Cl)c3)C2(Cl)Cl)ccc1Cl (centres unmarked) [c83]
Test C: Bioassay on Yellow Fever Mosquito, mortality rating [3]: A (80-100)
Test B: Bioassay on CL, percent mortality rating [4]: A (50-100)

CC(=O)OCCNc1ccc(NC(=O)c2cc(NC(=O)C3C(c4ccc(F)c(C(F)(F)F)c4)C3(Cl)Cl)ccc2Cl)c(C)c1 (centres unmarked) [c119]
Test B: percent mortality of Cabbage Looper (CL) larvae, rating [4]: A (50-100)
Test A: percent mortality of Beet Armyworm (BAW) larvae, rating [5]: A (50-100)

Cc1cc(NCCO)ccc1NC(=O)c1cc(NC(=O)C2C(c3ccc(F)c(C(F)(F)F)c3)C2(Cl)Cl)ccc1Cl (centres unmarked) [c120]
Test B: percent mortality of Cabbage Looper (CL) larvae, rating [4]: A (50-100)
Test A: percent mortality of Beet Armyworm (BAW) larvae, rating [5]: A (50-100)
